Measured values from the supplement of paper PMC10307832.

What was measured:
Assay in all cases: relative viability (nuclei count vs DMSO), 5 days (fraction); higher = more cells survive
NCI-H1650 = system: NCI-H1650
Method in brief: (§1)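 Nuclei were stained with Hoechst during a one-step fixation (final 0.05% Triton X-100, 1% formaldehyde, 1 ug/ml Hoechst) carried out 5 days after dosing, then counted on 4× images. The cells, lung cancer lines in 1536-well plates, had been dosed by pin tool the day after seeding with one drug alone or a fixed anchor-drug dose plus five library-drug doses (not always all listed) in √10 steps. Relative viability is the nuclei count in treated wells divided by that in vehicle wells, and each value is the median of duplicate plates.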

HCC-44 = system: HCC-44
Method in brief: as §1

NCI-H1975 = system: NCI-H1975
Method in brief: as §1

NCI-H1792 = system: NCI-H1792
Method in brief: as §1

201T = system: 201T
Method in brief: as §1

NCI-H441 = system: NCI-H441
Method in brief: as §1

SK-MES-1 = system: SK-MES-1
Method in brief: as §1

NCI-H23 = system: NCI-H23
Method in brief: as §1

BEN = system: BEN
Method in brief: as §1

NCI-H596 = system: NCI-H596
Method in brief: as §1

HARA = system: HARA
Method in brief: as §1

NCI-H358 = system: NCI-H358
Method in brief: as §1

HCC-827 = system: HCC-827
Method in brief: as §1

COR-L23 = system: COR-L23
Method in brief: as §1

NCI-H838 = system: NCI-H838
Method in brief: as §1

SW 900 = system: SW 900
Method in brief: as §1

EKVX = system: EKVX
Method in brief: as §1

NCI-H1437 = system: NCI-H1437
Method in brief: as §1

NCI-H2342 = system: NCI-H2342
Method in brief: as §1

A-427 = system: A-427
Method in brief: as §1

HCC-15 = system: HCC-15
Method in brief: as §1

NCI-H650 = system: NCI-H650
Method in brief: as §1

COc1cc2nccc(Oc3ccc(NC(=O)Nc4cc(C)on4)c(Cl)c3)c2cc1OC [Tivozanib] + CC(=O)Nc1cccc(-n2c(=O)n(C3CC3)c(=O)c3c(Nc4ccc(I)cc4F)n(C)c(=O)c(C)c32)c1 [Trametinib] (partner 0.02 µM)
relative viability (NCI-H1650; first compound 0.005 µM): 0.592
relative viability (NCI-H1650; first compound 0.01581 µM): 0.582
relative viability (NCI-H1650; first compound 0.05 µM): 0.584
relative viability (NCI-H1650; first compound 0.1581 µM): 0.545
relative viability (NCI-H1650; first compound 0.5 µM): 0.547
relative viability (HCC-44; first compound 0.005 µM): 0.992
relative viability (HCC-44; first compound 0.01581 µM): 1.09
relative viability (HCC-44; first compound 0.05 µM): 1.05
relative viability (HCC-44; first compound 0.1581 µM): 1.09
relative viability (HCC-44; first compound 0.5 µM): 1.07
relative viability (NCI-H1975; first compound 0.005 µM): 0.296
relative viability (NCI-H1975; first compound 0.01581 µM): 0.39
relative viability (NCI-H1975; first compound 0.05 µM): 0.442
relative viability (NCI-H1975; first compound 0.1581 µM): 0.256
relative viability (NCI-H1975; first compound 0.5 µM): 0.312
relative viability (NCI-H1792; first compound 0.005 µM): 0.401
relative viability (NCI-H1792; first compound 0.01581 µM): 0.397
relative viability (NCI-H1792; first compound 0.05 µM): 0.438
relative viability (NCI-H1792; first compound 0.5 µM): 0.632
relative viability (201T; first compound 0.005 µM): 0.691
relative viability (201T; first compound 0.01581 µM): 0.759
relative viability (201T; first compound 0.05 µM): 0.681
relative viability (201T; first compound 0.1581 µM): 0.717
relative viability (201T; first compound 0.5 µM): 0.784
relative viability (NCI-H441; first compound 0.005 µM): 0.405
relative viability (NCI-H441; first compound 0.01581 µM): 0.489
relative viability (NCI-H441; first compound 0.05 µM): 0.551
relative viability (NCI-H441; first compound 0.1581 µM): 0.367
relative viability (NCI-H441; first compound 0.5 µM): 0.433
relative viability (SK-MES-1; first compound 0.005 µM): 0.542
relative viability (SK-MES-1; first compound 0.01581 µM): 0.602
relative viability (SK-MES-1; first compound 0.05 µM): 0.558
relative viability (SK-MES-1; first compound 0.1581 µM): 0.542
relative viability (SK-MES-1; first compound 0.5 µM): 0.7
relative viability (NCI-H23; first compound 0.005 µM): 0.363
relative viability (NCI-H23; first compound 0.01581 µM): 0.364
relative viability (NCI-H23; first compound 0.05 µM): 0.383
relative viability (NCI-H23; first compound 0.5 µM): 0.373
relative viability (BEN; first compound 0.005 µM): 1.13
relative viability (BEN; first compound 0.01581 µM): 1.1
relative viability (BEN; first compound 0.05 µM): 0.961
relative viability (BEN; first compound 0.1581 µM): 0.903
relative viability (BEN; first compound 0.5 µM): 1
relative viability (NCI-H596; first compound 0.005 µM): 0.653
relative viability (NCI-H596; first compound 0.01581 µM): 0.834
relative viability (NCI-H596; first compound 0.05 µM): 0.725
relative viability (NCI-H596; first compound 0.5 µM): 0.931
relative viability (HARA; first compound 0.005 µM): 0.628
relative viability (HARA; first compound 0.01581 µM): 0.817
relative viability (HARA; first compound 0.05 µM): 0.615
relative viability (HARA; first compound 0.1581 µM): 1.06
relative viability (HARA; first compound 0.5 µM): 0.744
relative viability (NCI-H358; first compound 0.005 µM): 0.124
relative viability (NCI-H358; first compound 0.01581 µM): 0.153
relative viability (NCI-H358; first compound 0.05 µM): 0.161
relative viability (NCI-H358; first compound 0.1581 µM): 0.108
relative viability (NCI-H358; first compound 0.5 µM): 0.144
relative viability (HCC-827; first compound 0.005 µM): 0.52
relative viability (HCC-827; first compound 0.01581 µM): 0.543
relative viability (HCC-827; first compound 0.05 µM): 0.571
relative viability (HCC-827; first compound 0.1581 µM): 0.527
relative viability (HCC-827; first compound 0.5 µM): 0.533
relative viability (COR-L23; first compound 0.005 µM): 0.542
relative viability (COR-L23; first compound 0.01581 µM): 0.577
relative viability (COR-L23; first compound 0.05 µM): 0.588
relative viability (COR-L23; first compound 0.1581 µM): 0.421
relative viability (COR-L23; first compound 0.5 µM): 0.545
relative viability (NCI-H838; first compound 0.005 µM): 0.514
relative viability (NCI-H838; first compound 0.01581 µM): 0.555
relative viability (NCI-H838; first compound 0.05 µM): 0.552
relative viability (NCI-H838; first compound 0.1581 µM): 0.34
relative viability (NCI-H838; first compound 0.5 µM): 0.504
relative viability (SW 900; first compound 0.005 µM): 0.692
relative viability (SW 900; first compound 0.01581 µM): 1.18
relative viability (SW 900; first compound 0.05 µM): 1.04
relative viability (SW 900; first compound 0.5 µM): 0.829
relative viability (EKVX; first compound 0.005 µM): 0.32
relative viability (EKVX; first compound 0.01581 µM): 0.467
relative viability (EKVX; first compound 0.05 µM): 0.477
relative viability (EKVX; first compound 0.1581 µM): 0.292
relative viability (EKVX; first compound 0.5 µM): 0.345
relative viability (NCI-H1437; first compound 0.005 µM): 0.567
relative viability (NCI-H1437; first compound 0.01581 µM): 0.535
relative viability (NCI-H1437; first compound 0.05 µM): 0.592
relative viability (NCI-H1437; first compound 0.1581 µM): 0.49
relative viability (NCI-H1437; first compound 0.5 µM): 0.522
relative viability (NCI-H2342; first compound 0.005 µM): 0.823
relative viability (NCI-H2342; first compound 0.01581 µM): 0.834
relative viability (NCI-H2342; first compound 0.05 µM): 1.92
relative viability (NCI-H2342; first compound 0.5 µM): 0.733
relative viability (A-427; first compound 0.005 µM): 0.696
relative viability (A-427; first compound 0.01581 µM): 0.718
relative viability (A-427; first compound 0.05 µM): 0.758
relative viability (A-427; first compound 0.1581 µM): 0.67
relative viability (A-427; first compound 0.5 µM): 0.686
relative viability (HCC-15; first compound 0.005 µM): 0.391
relative viability (HCC-15; first compound 0.01581 µM): 0.365
relative viability (HCC-15; first compound 0.05 µM): 0.364
relative viability (HCC-15; first compound 0.1581 µM): 0.422
relative viability (HCC-15; first compound 0.5 µM): 0.395
relative viability (NCI-H650; first compound 0.005 µM): 0.942
relative viability (NCI-H650; first compound 0.01581 µM): 1.05
relative viability (NCI-H650; first compound 0.05 µM): 1.05
relative viability (NCI-H650; first compound 0.1581 µM): 0.97
relative viability (NCI-H650; first compound 0.5 µM): 0.909
